Source: the supplement of paper PMC10307832

Key:
Assay in all cases: relative viability (nuclei count vs DMSO), 5 days (fraction); higher = more cells survive
[1] = tested on: LXF-289
In short: (§1)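 Lung cancer cell lines were seeded in 1536-well plates and dosed by pin tool the next day, with either a single drug or a fixed anchor-drug dose combined with five library-drug doses (not always all listed) spaced in √10 steps. Five days later, one step fixed the cells and stained their nuclei (final 0.05% Triton X-100, 1% formaldehyde, 1 ug/ml Hoechst), and nuclei were counted on 4× images. Relative viability is the nuclei count in treated wells divided by the count in vehicle wells, and each value is the median of duplicate plates.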

[2] = tested on: NCI-H1915
In short: as §1

[3] = tested on: NCI-H1944
In short: as §1

[4] = tested on: NCI-H1755
In short: as §1

[5] = tested on: LU99A
In short: as §1

[6] = tested on: PC-3 [JPC-3]
In short: as §1

[7] = tested on: NCI-H650
In short: as §1

[8] = tested on: BEN
In short: as §1

[9] = tested on: NCI-H1793
In short: as §1

[10] = tested on: LCLC-97TM1
In short: as §1

[11] = tested on: NCI-H2170
In short: as §1

[12] = tested on: LOU-NH91
In short: as §1

[13] = tested on: NCI-H460
In short: as §1

[14] = tested on: SK-LU-1
In short: as §1

[15] = tested on: NCI-H2126
In short: as §1

[16] = tested on: NCI-H1666
In short: as §1

[17] = tested on: A-427
In short: as §1

[18] = tested on: NCI-H2023
In short: as §1

[19] = tested on: NCI-H23
In short: as §1

[20] = tested on: NCI-H322M
In short: as §1

[21] = tested on: HARA
In short: as §1

[22] = tested on: NCI-H1395
In short: as §1

[23] = tested on: NCI-H441
In short: as §1

## Cc1cnc(-c2cnc(NCCNc3ccc(C#N)cn3)nc2-c2ccc(Cl)cc2Cl)[nH]1 + CS(=O)(=O)CCNCc1ccc(-c2ccc3ncnc(Nc4ccc(OCc5cccc(F)c5)c(Cl)c4)c3c2)o1 [Lapatinib] (partner 2 µM)
[1]; first compound 0.08 µM
  relative viability: 0.957
[1]; first compound 0.253 µM
  relative viability: 0.806
[1]; first compound 0.8 µM
  relative viability: 0.896
[1]; first compound 2.53 µM
  relative viability: 1.04
[2]; first compound 0.08 µM
  relative viability: 0.985
[2]; first compound 0.8 µM
  relative viability: 0.947
[2]; first compound 2.53 µM
  relative viability: 1.04
[3]; first compound 0.08 µM
  relative viability: 0.858
[3]; first compound 0.8 µM
  relative viability: 0.776
[3]; first compound 2.53 µM
  relative viability: 0.872
[4]; first compound 0.08 µM
  relative viability: 1.04
[4]; first compound 0.253 µM
  relative viability: 0.785
[4]; first compound 0.8 µM
  relative viability: 1.06
[4]; first compound 2.53 µM
  relative viability: 1.07
[5]; first compound 0.08 µM
  relative viability: 1.06
[5]; first compound 0.253 µM
  relative viability: 0.879
[5]; first compound 0.8 µM
  relative viability: 1.06
[5]; first compound 2.53 µM
  relative viability: 1.04
[6]; first compound 0.08 µM
  relative viability: 0.498
[6]; first compound 0.253 µM
  relative viability: 0.449
[6]; first compound 0.8 µM
  relative viability: 0.419
[6]; first compound 2.53 µM
  relative viability: 0.474
[7]; first compound 0.08 µM
  relative viability: 0.926
[7]; first compound 0.253 µM
  relative viability: 1.12
[7]; first compound 0.8 µM
  relative viability: 0.478
[7]; first compound 2.53 µM
  relative viability: 0.789
[8]; first compound 0.08 µM
  relative viability: 0.615
[8]; first compound 0.253 µM
  relative viability: 0.686
[8]; first compound 0.8 µM
  relative viability: 0.705
[8]; first compound 2.53 µM
  relative viability: 0.621
[9]; first compound 0.08 µM
  relative viability: 0.608
[9]; first compound 0.253 µM
  relative viability: 0.678
[9]; first compound 0.8 µM
  relative viability: 0.721
[9]; first compound 2.53 µM
  relative viability: 1.02
[10]; first compound 0.08 µM
  relative viability: 1.1
[10]; first compound 0.253 µM
  relative viability: 0.883
[10]; first compound 0.8 µM
  relative viability: 1.07
[10]; first compound 2.53 µM
  relative viability: 0.745
[11]; first compound 0.08 µM
  relative viability: 0.298
[11]; first compound 0.253 µM
  relative viability: 0.262
[11]; first compound 0.8 µM
  relative viability: 0.279
[11]; first compound 2.53 µM
  relative viability: 0.32
[12]; first compound 0.08 µM
  relative viability: 0.811
[12]; first compound 0.253 µM
  relative viability: 0.738
[12]; first compound 0.8 µM
  relative viability: 0.739
[12]; first compound 2.53 µM
  relative viability: 0.866
[13]; first compound 0.08 µM
  relative viability: 0.943
[13]; first compound 0.253 µM
  relative viability: 0.826
[13]; first compound 0.8 µM
  relative viability: 0.864
[13]; first compound 2.53 µM
  relative viability: 0.775
[14]; first compound 0.08 µM
  relative viability: 0.87
[14]; first compound 0.253 µM
  relative viability: 0.96
[14]; first compound 0.8 µM
  relative viability: 0.999
[14]; first compound 2.53 µM
  relative viability: 1.11
[15]; first compound 0.08 µM
  relative viability: 0.753
[15]; first compound 0.253 µM
  relative viability: 0.728
[15]; first compound 0.8 µM
  relative viability: 0.786
[15]; first compound 2.53 µM
  relative viability: 0.741
[16]; first compound 0.08 µM
  relative viability: 0.768
[16]; first compound 0.253 µM
  relative viability: 0.554
[16]; first compound 0.8 µM
  relative viability: 0.595
[16]; first compound 2.53 µM
  relative viability: 0.62
[17]; first compound 0.08 µM
  relative viability: 1.03
[17]; first compound 0.253 µM
  relative viability: 0.942
[17]; first compound 0.8 µM
  relative viability: 1.09
[17]; first compound 2.53 µM
  relative viability: 1.03
[18]; first compound 0.08 µM
  relative viability: 1.23
[18]; first compound 0.253 µM
  relative viability: 0.431
[18]; first compound 0.8 µM
  relative viability: 0.827
[18]; first compound 2.53 µM
  relative viability: 0.913
[19]; first compound 0.08 µM
  relative viability: 1.14
[19]; first compound 0.253 µM
  relative viability: 1.02
[19]; first compound 0.8 µM
  relative viability: 1.07
[19]; first compound 2.53 µM
  relative viability: 1.11
[20]; first compound 0.08 µM
  relative viability: 0.575
[20]; first compound 0.253 µM
  relative viability: 0.565
[20]; first compound 0.8 µM
  relative viability: 0.594
[20]; first compound 2.53 µM
  relative viability: 0.555
[21]; first compound 0.08 µM
  relative viability: 1.03
[21]; first compound 0.253 µM
  relative viability: 0.598
[21]; first compound 0.8 µM
  relative viability: 0.799
[21]; first compound 2.53 µM
  relative viability: 0.607
[22]; first compound 0.08 µM
  relative viability: 1.04
[22]; first compound 0.253 µM
  relative viability: 0.776
[22]; first compound 0.8 µM
  relative viability: 1.07
[22]; first compound 2.53 µM
  relative viability: 0.94

## Cc1cnc(-c2cnc(NCCNc3ccc(C#N)cn3)nc2-c2ccc(Cl)cc2Cl)[nH]1 + C[C@@H](Oc1cc(-c2cnn(C3CCNCC3)c2)cnc1N)c1c(Cl)ccc(F)c1Cl [Crizotinib] (partner 1 µM)
[1]; first compound 0.08 µM
  relative viability: 0.852
[1]; first compound 0.253 µM
  relative viability: 0.796
[1]; first compound 0.8 µM
  relative viability: 0.839
[1]; first compound 2.53 µM
  relative viability: 0.87
[2]; first compound 0.08 µM
  relative viability: 0.85
[2]; first compound 0.8 µM
  relative viability: 0.896
[2]; first compound 2.53 µM
  relative viability: 0.931
[3]; first compound 0.08 µM
  relative viability: 1.11
[3]; first compound 0.8 µM
  relative viability: 1.16
[3]; first compound 2.53 µM
  relative viability: 1.1
[23]; first compound 0.08 µM
  relative viability: 0.845
[23]; first compound 0.253 µM
  relative viability: 0.528
[23]; first compound 0.8 µM
  relative viability: 0.713
[23]; first compound 2.53 µM
  relative viability: 0.791
[4]; first compound 0.08 µM
  relative viability: 0.853
[4]; first compound 0.253 µM
  relative viability: 0.856
[4]; first compound 0.8 µM
  relative viability: 0.824
[4]; first compound 2.53 µM
  relative viability: 0.804
[5]; first compound 0.08 µM
  relative viability: 0.621
[5]; first compound 0.253 µM
  relative viability: 0.459
[5]; first compound 0.8 µM
  relative viability: 0.534
[5]; first compound 2.53 µM
  relative viability: 0.592
[6]; first compound 0.08 µM
  relative viability: 0.936
[6]; first compound 0.253 µM
  relative viability: 0.894
[6]; first compound 0.8 µM
  relative viability: 0.999
[6]; first compound 2.53 µM
  relative viability: 0.953
[7]; first compound 0.08 µM
  relative viability: 0.786
[7]; first compound 0.253 µM
  relative viability: 0.676
[7]; first compound 0.8 µM
  relative viability: 0.673
[7]; first compound 2.53 µM
  relative viability: 0.611
[8]; first compound 0.08 µM
  relative viability: 0.908
[8]; first compound 0.253 µM
  relative viability: 0.787
[8]; first compound 0.8 µM
  relative viability: 0.846
[8]; first compound 2.53 µM
  relative viability: 0.876
[10]; first compound 0.08 µM
  relative viability: 0.338
[10]; first compound 0.253 µM
  relative viability: 0.401
[10]; first compound 0.8 µM
  relative viability: 0.362
[10]; first compound 2.53 µM
  relative viability: 0.349
[11]; first compound 0.08 µM
  relative viability: 1.25
[11]; first compound 0.253 µM
  relative viability: 1.07
[11]; first compound 0.8 µM
  relative viability: 1.26
[11]; first compound 2.53 µM
  relative viability: 1.06
[12]; first compound 0.08 µM
  relative viability: 0.74
[12]; first compound 0.253 µM
  relative viability: 0.724
[12]; first compound 0.8 µM
  relative viability: 0.749
[12]; first compound 2.53 µM
  relative viability: 0.782
[13]; first compound 0.08 µM
  relative viability: 1.03
[13]; first compound 0.253 µM
  relative viability: 0.857
[13]; first compound 0.8 µM
  relative viability: 0.858
[13]; first compound 2.53 µM
  relative viability: 0.776
[14]; first compound 0.08 µM
  relative viability: 1.01
[14]; first compound 0.253 µM
  relative viability: 0.918
[14]; first compound 0.8 µM
  relative viability: 1.17
[14]; first compound 2.53 µM
  relative viability: 1.3
[15]; first compound 0.08 µM
  relative viability: 0.996
[15]; first compound 0.253 µM
  relative viability: 1.02
[15]; first compound 0.8 µM
  relative viability: 0.968
[15]; first compound 2.53 µM
  relative viability: 1.01
[16]; first compound 0.08 µM
  relative viability: 0.981
[16]; first compound 0.253 µM
  relative viability: 0.822
[16]; first compound 0.8 µM
  relative viability: 1.26
[16]; first compound 2.53 µM
  relative viability: 1.19
[17]; first compound 0.08 µM
  relative viability: 0.911
[17]; first compound 0.253 µM
  relative viability: 0.972
[17]; first compound 0.8 µM
  relative viability: 0.882
[17]; first compound 2.53 µM
  relative viability: 0.826
[18]; first compound 0.08 µM
  relative viability: 0.775
[18]; first compound 0.253 µM
  relative viability: 0.696
[18]; first compound 0.8 µM
  relative viability: 0.664
[18]; first compound 2.53 µM
  relative viability: 0.688
[19]; first compound 0.08 µM
  relative viability: 0.676
[19]; first compound 0.253 µM
  relative viability: 0.496
[19]; first compound 0.8 µM
  relative viability: 0.638
[19]; first compound 2.53 µM
  relative viability: 0.621
[20]; first compound 0.08 µM
  relative viability: 0.925
[20]; first compound 0.253 µM
  relative viability: 0.81
[20]; first compound 0.8 µM
  relative viability: 0.821
[20]; first compound 2.53 µM
  relative viability: 0.858
[21]; first compound 0.08 µM
  relative viability: 1.02
[21]; first compound 0.253 µM
  relative viability: 0.956
[21]; first compound 0.8 µM
  relative viability: 1.06
[21]; first compound 2.53 µM
  relative viability: 1.12
